Measurements reported in patent US8415469B2, “Compounds and methods for kinase modulation, and indications therefor” (Plexxikon Inc., priority 2005, dated 2013).

Experiments:
Format in all cases: biochemical
[1] = biological target: T1, Jak3 (Homo sapiens, UniProt P52333); assay: AlphaScreen kinase assay, Jak3; conditions: read-out: IC50, activity toward kinase Jak3
T1 sequence (P52333 1-1124): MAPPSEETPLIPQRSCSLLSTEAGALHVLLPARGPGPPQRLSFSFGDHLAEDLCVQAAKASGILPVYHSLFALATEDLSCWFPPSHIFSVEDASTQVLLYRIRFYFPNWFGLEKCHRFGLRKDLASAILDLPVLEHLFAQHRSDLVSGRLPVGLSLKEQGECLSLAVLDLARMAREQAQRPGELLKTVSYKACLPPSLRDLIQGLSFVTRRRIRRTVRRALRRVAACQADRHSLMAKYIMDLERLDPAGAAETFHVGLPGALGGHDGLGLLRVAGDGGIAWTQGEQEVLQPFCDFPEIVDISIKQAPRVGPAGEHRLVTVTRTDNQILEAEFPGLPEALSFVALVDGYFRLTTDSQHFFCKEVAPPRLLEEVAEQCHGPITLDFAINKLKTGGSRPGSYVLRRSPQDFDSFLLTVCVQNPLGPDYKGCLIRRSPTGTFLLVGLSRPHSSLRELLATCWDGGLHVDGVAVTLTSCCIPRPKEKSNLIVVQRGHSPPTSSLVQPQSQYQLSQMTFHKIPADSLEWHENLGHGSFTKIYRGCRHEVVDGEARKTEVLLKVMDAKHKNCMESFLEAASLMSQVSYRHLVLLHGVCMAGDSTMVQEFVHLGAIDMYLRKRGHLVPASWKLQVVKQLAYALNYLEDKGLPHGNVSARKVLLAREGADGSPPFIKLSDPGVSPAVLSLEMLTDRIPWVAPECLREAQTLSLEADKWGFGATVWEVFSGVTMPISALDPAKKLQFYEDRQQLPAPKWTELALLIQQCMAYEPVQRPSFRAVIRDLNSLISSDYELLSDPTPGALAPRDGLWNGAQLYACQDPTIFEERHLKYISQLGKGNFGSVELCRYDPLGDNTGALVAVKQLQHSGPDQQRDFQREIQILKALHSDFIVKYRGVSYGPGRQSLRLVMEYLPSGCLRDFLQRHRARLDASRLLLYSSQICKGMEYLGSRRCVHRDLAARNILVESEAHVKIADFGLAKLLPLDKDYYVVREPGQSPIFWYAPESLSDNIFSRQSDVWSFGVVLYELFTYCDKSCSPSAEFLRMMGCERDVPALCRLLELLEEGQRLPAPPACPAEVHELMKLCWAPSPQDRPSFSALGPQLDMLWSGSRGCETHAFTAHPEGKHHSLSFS
Source text: AlphaScreen assay was used to screen additional kinases. The assay is similarly dependent on the phosphorylation of a peptide substrate. In this assay, an antibody that recognizes phosphorylated substrate is bound to an acceptor bead. The peptide substrate is attached to biotin, which binds to a donor head that contains streptavidin. Thus phosphorylated substrate is bound by antibody and streptavidin, bringing the donor and acceptor heads into close proximity when kinase is not inhibited. The donor produces singlet oxygen which results in emission from the acceptor when they are in close proximity. Conversely, when kinase is inhibited, the donor and acceptor beads are not associated and the emission from the acceptor is reduced.
AlphaScreen assays were done using compounds dissolved in DMSO to a concentration of 20 mM. The compounds were diluted accordingly to the desired final concentrations in each sample well, using 1:3 serial dilution for a total of 8 concentration points.

[2] = biological target: T2, Stk6 (Homo sapiens, UniProt O14965); assay: Z'-Lyte FRET kinase assay (Invitrogen), Stk6; conditions: read-out: IC50, activity toward kinase Stk6
T2 construct: purchased Invitrogen (Carlsbad, Calif.), screening service
T2 sequence (O14965 1-403): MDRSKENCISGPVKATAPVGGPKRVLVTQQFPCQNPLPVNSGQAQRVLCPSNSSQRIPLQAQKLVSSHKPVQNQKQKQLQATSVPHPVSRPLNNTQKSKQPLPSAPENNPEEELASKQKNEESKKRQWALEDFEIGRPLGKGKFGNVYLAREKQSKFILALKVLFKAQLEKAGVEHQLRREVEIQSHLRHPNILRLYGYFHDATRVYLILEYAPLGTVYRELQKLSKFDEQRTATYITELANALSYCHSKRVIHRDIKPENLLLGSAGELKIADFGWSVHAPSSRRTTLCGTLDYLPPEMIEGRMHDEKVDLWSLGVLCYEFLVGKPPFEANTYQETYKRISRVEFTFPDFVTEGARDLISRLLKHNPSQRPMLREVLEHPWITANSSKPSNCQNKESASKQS

[3] = biological target: T3, Btk (Homo sapiens, UniProt Q06187); assay: Z'-Lyte FRET kinase assay (Invitrogen), Btk; conditions: read-out: IC50, activity toward kinase Btk
T3 construct: purchased Invitrogen (assay run by Invitrogen)

[4] = biological target: T4, Kdr (Homo sapiens, UniProt P35968); assay: Z'-Lyte FRET kinase assay (Invitrogen), Kdr; conditions: read-out: IC50, activity toward kinase Kdr
T4 construct: purchased Invitrogen (assay run by Invitrogen)

[5] = biological target: T5, MAP2K1 (Homo sapiens, UniProt Q02750); assay: Z'-Lyte FRET kinase assay (Invitrogen), MAP2K1; conditions: read-out: IC50, activity toward kinase MAP2K1
T5 construct: purchased Invitrogen (assay run by Invitrogen)

[6] = biological target: T6, Ret (Homo sapiens, UniProt P07949); assay: AlphaScreen kinase assay, Ret; conditions: read-out: IC50, activity toward kinase Ret
T6 construct: P1378.pET-SF BI-PTP RET H661-R1012 HIS; made in house
T6 sequence (P07949 with tags, fused parts or gaps): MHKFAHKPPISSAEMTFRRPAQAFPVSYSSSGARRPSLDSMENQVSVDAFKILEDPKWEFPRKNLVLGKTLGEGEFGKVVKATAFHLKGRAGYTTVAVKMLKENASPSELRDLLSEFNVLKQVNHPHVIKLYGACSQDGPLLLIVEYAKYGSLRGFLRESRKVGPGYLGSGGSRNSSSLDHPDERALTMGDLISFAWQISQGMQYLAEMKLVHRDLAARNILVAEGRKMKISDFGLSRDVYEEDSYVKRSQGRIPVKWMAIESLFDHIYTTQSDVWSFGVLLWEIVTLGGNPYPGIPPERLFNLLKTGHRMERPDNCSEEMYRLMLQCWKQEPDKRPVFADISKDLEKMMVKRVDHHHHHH

[7] = biological target: T7, B-Raf V600E (Homo sapiens, UniProt P15056, V600E); assay: AlphaScreen kinase assay, B-Raf V600E; conditions: read-out: IC50, activity toward kinase B-Raf V600E
T7 construct: P4254. pFastBacBD-CDC37 BRAF D437-K722-X, V600E; His6 with pFastBac HT leader (TEV site) (N); made in house; host or cells: Sf9 (baculovirus; chaperone CDC37 co-expressed)

[8] = biological target: T8, FGFR1 (Homo sapiens, UniProt P11362, C488A/C584S); assay: AlphaScreen kinase assay, FGFR1; conditions: read-out: IC50, activity toward kinase FGFR
T8 construct: P1351.pET N6 BI-PTP FGFR A458-E765-X C488A, C584S; made in house; host or cells: E. coli (PTP1B co-expressed)

[9] = biological target: T9, Flt4 (Homo sapiens, UniProt P35916); assay: AlphaScreen kinase assay, Flt4; conditions: read-out: IC50, activity toward kinase Flt4
T9 construct: purchased ProQinase GmbH (Freiburg, Germany)
Outline: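 AlphaScreen read-out: acceptor-bead emission falls when kinase is inhibited. Biotin-peptide substrate captured on streptavidin donor beads, phospho-specific antibody on acceptor beads. 8 concentrations, 1:3 dilution series, from 20 mM DMSO stocks.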

[10] = biological target: T10, Pyk2 (Homo sapiens, UniProt Q14289); assay: AlphaScreen kinase assay, Pyk2; conditions: read-out: IC50, activity toward kinase Pyk2
T10 construct: purchased Upstate Biotechnology

[11] = biological target: T11, Yes (Homo sapiens, UniProt P07947); assay: Z'-Lyte FRET kinase assay (Invitrogen), Yes; conditions: read-out: IC50, activity toward kinase Yes
T11 construct: purchased Invitrogen (Carlsbad, Calif.), screening service
Outline: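 Under a compound concentration curve, the kinase acted on a dual-labelled peptide at 2 μM with ATP at 10 μM for one hour at ambient temperature (buffer pH 7.5, 1% DMSO). Phosphorylation extent came from the emission ratio after protease development.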

Measured: IC50

T8 sequence (P11362 458-765 C488A/C584S): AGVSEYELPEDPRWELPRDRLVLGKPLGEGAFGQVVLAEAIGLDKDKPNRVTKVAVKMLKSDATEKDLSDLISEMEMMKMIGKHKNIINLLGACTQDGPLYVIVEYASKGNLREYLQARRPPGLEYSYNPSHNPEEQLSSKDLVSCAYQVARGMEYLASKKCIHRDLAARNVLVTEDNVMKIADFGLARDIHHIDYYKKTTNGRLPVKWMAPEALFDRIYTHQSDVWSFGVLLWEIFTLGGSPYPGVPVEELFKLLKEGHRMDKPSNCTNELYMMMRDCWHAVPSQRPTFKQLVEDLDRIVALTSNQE
T4 sequence (P35968 20-1356): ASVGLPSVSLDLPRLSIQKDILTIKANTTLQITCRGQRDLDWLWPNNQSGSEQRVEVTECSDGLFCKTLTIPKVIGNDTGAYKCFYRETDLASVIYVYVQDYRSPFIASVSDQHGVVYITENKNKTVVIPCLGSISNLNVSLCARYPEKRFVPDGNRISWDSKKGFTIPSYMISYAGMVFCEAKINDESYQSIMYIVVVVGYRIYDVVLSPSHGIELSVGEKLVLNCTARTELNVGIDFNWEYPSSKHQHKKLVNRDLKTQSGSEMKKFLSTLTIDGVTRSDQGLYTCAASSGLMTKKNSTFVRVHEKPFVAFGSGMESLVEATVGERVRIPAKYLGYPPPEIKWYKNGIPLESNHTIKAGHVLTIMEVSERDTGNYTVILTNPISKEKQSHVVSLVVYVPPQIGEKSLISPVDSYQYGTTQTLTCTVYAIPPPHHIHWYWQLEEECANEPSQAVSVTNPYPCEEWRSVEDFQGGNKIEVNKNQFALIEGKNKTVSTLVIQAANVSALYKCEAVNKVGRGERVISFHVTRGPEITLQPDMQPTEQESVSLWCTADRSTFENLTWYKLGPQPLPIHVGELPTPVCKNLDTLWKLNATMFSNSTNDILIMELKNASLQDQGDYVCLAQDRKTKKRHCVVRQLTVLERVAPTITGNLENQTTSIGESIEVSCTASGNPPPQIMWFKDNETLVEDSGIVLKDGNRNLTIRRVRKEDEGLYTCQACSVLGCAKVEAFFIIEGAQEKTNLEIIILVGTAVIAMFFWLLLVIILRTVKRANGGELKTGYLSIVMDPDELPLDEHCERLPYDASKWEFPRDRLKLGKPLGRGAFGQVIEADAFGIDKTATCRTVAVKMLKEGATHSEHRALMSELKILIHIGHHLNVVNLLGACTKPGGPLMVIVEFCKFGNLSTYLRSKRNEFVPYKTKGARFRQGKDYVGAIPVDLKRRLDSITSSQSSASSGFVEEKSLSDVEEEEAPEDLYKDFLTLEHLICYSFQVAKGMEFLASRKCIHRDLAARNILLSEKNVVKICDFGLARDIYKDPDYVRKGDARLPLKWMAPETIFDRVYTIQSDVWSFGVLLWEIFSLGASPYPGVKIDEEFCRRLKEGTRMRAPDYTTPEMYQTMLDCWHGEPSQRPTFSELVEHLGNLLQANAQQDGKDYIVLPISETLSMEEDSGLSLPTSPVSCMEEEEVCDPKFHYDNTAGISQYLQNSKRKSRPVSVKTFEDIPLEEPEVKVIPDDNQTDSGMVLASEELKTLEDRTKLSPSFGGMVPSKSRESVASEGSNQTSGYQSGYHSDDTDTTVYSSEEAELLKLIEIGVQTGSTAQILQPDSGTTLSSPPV
T7 sequence (P15056 with tags, fused parts or gaps V600E): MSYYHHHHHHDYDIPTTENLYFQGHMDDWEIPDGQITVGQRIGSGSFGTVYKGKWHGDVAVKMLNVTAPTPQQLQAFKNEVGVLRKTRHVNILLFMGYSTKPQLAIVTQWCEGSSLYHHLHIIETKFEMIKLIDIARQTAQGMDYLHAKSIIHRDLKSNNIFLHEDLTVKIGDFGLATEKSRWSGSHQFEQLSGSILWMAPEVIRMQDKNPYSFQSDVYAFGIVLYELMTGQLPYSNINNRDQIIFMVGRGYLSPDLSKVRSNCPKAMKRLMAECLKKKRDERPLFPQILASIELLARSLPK
T3 sequence (Q06187 whole entry): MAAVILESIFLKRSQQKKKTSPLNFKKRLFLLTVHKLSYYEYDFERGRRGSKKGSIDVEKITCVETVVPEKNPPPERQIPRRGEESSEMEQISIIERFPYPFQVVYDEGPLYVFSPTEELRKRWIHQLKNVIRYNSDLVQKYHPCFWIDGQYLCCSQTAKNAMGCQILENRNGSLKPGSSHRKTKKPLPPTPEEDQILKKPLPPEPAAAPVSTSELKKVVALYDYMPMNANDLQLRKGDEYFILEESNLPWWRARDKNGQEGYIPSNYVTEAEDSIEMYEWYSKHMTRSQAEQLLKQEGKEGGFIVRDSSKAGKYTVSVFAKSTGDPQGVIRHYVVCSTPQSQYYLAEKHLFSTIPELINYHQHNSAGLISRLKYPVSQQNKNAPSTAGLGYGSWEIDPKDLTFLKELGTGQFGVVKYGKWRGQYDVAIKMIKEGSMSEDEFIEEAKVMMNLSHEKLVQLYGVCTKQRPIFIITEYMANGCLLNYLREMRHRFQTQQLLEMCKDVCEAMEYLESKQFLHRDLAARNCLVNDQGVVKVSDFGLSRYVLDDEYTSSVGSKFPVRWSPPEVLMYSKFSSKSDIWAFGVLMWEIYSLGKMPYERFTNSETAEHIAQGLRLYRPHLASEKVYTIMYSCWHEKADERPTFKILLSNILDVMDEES
T5 sequence (Q02750 whole entry): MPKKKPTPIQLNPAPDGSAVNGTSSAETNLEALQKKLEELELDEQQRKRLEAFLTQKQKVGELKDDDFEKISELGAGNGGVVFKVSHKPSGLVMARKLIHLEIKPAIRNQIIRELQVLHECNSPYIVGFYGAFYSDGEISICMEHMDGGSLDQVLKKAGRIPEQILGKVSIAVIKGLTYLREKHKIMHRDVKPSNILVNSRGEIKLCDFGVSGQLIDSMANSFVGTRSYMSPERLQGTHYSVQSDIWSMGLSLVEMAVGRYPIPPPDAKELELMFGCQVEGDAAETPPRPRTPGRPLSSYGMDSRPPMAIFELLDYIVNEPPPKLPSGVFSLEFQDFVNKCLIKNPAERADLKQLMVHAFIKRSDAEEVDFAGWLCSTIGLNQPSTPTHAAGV
T10 sequence (Q14289 whole entry): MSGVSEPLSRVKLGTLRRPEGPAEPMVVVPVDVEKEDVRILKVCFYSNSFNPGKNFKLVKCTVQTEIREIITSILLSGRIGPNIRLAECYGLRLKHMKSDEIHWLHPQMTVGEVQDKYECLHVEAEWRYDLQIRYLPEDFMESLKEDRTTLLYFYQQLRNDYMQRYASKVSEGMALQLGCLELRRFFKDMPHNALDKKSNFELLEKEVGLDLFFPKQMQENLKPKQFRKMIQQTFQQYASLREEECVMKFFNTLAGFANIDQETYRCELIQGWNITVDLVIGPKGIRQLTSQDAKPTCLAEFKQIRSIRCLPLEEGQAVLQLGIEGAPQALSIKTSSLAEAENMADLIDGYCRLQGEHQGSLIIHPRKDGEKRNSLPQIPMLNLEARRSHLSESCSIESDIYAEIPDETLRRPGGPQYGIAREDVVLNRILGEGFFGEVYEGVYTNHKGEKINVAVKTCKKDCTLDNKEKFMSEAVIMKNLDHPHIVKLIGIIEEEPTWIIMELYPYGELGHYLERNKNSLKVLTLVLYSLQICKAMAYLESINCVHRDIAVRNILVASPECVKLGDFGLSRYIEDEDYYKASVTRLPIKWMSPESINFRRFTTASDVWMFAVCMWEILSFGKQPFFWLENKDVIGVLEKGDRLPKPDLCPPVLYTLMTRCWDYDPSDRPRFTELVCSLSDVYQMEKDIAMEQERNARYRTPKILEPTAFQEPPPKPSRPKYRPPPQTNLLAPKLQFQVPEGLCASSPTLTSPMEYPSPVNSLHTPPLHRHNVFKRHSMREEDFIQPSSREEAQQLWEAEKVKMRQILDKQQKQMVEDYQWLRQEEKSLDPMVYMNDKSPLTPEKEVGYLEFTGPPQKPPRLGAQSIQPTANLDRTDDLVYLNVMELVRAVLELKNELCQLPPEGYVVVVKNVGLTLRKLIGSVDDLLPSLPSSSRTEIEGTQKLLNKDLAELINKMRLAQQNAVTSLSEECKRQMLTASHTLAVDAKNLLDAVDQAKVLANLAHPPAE
T11 sequence (P07947 whole entry): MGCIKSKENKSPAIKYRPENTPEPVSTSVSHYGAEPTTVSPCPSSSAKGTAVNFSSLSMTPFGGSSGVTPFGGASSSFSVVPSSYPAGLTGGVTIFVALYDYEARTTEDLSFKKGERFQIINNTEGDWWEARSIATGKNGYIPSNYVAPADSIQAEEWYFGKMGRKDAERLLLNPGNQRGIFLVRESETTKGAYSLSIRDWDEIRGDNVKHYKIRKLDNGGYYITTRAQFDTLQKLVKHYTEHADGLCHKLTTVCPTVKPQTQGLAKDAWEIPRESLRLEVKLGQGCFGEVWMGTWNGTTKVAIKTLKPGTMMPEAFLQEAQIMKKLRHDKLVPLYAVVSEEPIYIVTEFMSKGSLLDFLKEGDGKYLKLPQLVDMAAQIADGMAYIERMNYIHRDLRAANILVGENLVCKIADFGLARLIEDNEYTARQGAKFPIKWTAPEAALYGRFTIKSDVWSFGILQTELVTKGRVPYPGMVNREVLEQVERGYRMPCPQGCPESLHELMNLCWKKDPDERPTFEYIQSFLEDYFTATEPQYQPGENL

CCCC(=O)Nc1ccc(F)c(C(O)c2c[nH]c3ncc(OC)cc23)c1F (stereo not shown) [Compound P-01367]
≤ 10 µM: [1]

O=C(c1ccccc1F)c1c[nH]c2nccc(-c3cccnc3)c12 [Compound P-0061]
≤ 10 µM: [2] | [3] | [4] | [1] | [5] | [6]

O=C(c1cc(F)ccc1F)c1c[nH]c2nccc(-c3cc(F)cc(F)c3)c12 [Compound P-0215]
≤ 10 µM: [7] | [8] | [1] | [9] | [6]

CC(C)(C)OC(=O)Nc1ccc(F)c(C(O)c2c[nH]c3ncc(Br)cc23)c1F (stereo not shown) [Compound P-0318, {3-[(5-Bromo-1H-pyrrolo[2,3-b]pyridin-3-yl)-hydroxy-methyl]-2,4-difluoro-phenyl}-carbamic acid tert-butyl ester]
≤ 10 µM: [7] | [1] | [10]

O=C(c1ccccc1F)c1c[nH]c2nccc(-c3ccccc3F)c12 [Compound P-0730]
≤ 10 µM: [7] | [4] | [8] | [1] | [6]

O=C(O)/C=C/c1cccc(-c2ccnc3[nH]cc(C(=O)c4ccccc4F)c23)c1 [Compound P-0108]
≤ 10 µM: [7] | [3] | [4] | [1] | [5] | [6]

O=C(c1cc(F)ccc1F)c1c[nH]c2nccc(-c3ccsc3)c12 [Compound P-0119]
≤ 10 µM: [7] | [2] | [8] | [1] | [6]

NC(=O)c1cccc(-c2cnc3[nH]cc(Cc4ccccc4O)c3c2)c1 [Compound P-01385]
≤ 10 µM: [1]

O=C(O)/C=C/c1cccc(-c2ccnc3[nH]cc(C(=O)c4cc(F)ccc4F)c23)c1 [Compound P-0141]
≤ 10 µM: [7] | [4] | [1] | [6]

OCc1cccc(-c2ccnc3[nH]cc(Sc4cccc(F)c4)c23)c1 [Compound P-0187]
≤ 10 µM: [7] | [2] | [1]

CS(=O)(=O)c1cccc(-c2ccnc3[nH]cc(C(=O)c4ccccc4F)c23)c1 [Compound P-0138]
≤ 10 µM: [3] | [11] | [1] | [6]
